Measured values: ChEMBL document CHEMBL3632528 (J Nat Prod, 2015)
pIC50, pKi: −log10 of the molar value.

Key:
[1] = target: T1, Liver carboxylesterase 1 (Homo sapiens, UniProt P23141); experiment: Inhibition of human carboxylesterase 1 using 2-(2'-benzoyl-3'-methoxylphenyl)-benzothiazole as substrate at 0.1 to 200 uM by fluorescence assay
T1 sequence (P23141 whole entry): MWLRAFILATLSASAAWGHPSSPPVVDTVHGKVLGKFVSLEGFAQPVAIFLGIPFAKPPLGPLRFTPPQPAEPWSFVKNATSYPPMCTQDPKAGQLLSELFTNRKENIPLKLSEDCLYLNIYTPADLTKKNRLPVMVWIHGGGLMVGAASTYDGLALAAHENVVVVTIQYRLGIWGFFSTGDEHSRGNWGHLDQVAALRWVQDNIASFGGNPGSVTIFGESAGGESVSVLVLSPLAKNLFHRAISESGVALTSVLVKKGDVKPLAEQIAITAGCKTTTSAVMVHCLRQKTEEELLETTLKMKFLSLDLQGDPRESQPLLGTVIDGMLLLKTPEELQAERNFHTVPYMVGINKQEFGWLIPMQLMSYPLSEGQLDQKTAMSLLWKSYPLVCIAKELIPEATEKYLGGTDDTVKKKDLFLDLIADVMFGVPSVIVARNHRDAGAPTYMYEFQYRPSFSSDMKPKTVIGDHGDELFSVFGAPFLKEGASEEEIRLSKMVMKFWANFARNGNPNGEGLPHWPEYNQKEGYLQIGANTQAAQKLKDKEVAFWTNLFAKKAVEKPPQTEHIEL

[2] = target: T2, Cocaine esterase (Homo sapiens, UniProt O00748); experiment: Inhibition of human carboxylesterase 2 using 4-benzoyl-N-butyl-1,8-naphthalimide as substrate by fluorescence assay
T2 sequence (O00748 whole entry): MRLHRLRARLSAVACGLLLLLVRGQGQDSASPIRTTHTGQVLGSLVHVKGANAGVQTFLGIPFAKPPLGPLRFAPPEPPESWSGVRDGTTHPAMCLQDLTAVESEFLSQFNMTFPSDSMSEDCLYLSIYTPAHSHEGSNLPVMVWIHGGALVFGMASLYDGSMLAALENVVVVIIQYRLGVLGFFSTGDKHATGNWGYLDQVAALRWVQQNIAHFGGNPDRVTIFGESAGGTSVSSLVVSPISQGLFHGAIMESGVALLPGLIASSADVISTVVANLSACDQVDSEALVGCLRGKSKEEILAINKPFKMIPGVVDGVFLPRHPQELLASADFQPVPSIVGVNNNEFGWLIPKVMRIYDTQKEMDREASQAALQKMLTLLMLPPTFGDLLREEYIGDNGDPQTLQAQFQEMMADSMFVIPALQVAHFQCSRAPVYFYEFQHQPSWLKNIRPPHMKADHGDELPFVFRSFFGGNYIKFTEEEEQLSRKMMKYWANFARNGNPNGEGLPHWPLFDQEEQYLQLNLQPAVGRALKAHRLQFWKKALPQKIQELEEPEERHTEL

[3] = target: T2, Cocaine esterase; experiment: […] inhibition of human carboxylesterase 2 using 4-benzoyl-N-butyl-1,8-naphthalimide as substrate by Dixon and Lineweaver-Burk plot analysis

SMILES	inhibition (INH) [1]	pIC50 [2]	pKi [3]
CC1(C)O[C@@H]1[C@@H](O)C[C@](C)(O)C1=C2C[C@H](O)[C@H]3[C@@]4(C)CCC(=O)C(C)(C)[C@@H]4CC[C@]3(C)[C@@]2(C)CC1=O	Not Active	–	–
C[C@H](C[C@H](O)[C@@H](O)C(C)(C)O)C1=C2CC[C@H]3[C@@]4(C)CCC(=O)C(C)(C)[C@@H]4CC[C@]3(C)[C@@]2(C)CC1	Not Active	5.33	–
CC(=O)O[C@@H]([C@@H](O)C[C@@H](C)C1=C2C[C@H](O)[C@H]3[C@@]4(C)CCC(=O)C(C)(C)[C@@H]4CC[C@]3(C)[C@@]2(C)CC1)C(C)(C)O	Not Active	–	–
C=C(C)[C@@H](O)[C@@H](O)C[C@@H](C)C1=C2CC[C@H]3[C@@]4(C)CCC(=O)C(C)(C)[C@@H]4CC[C@]3(C)[C@@]2(C)CC1	Not Active	–	–
C[C@H](C[C@H](O)[C@@H](O)C(C)(C)O)C1=C2C[C@H](O)[C@H]3[C@@]4(C)CCC(=O)C(C)(C)[C@@H]4CC[C@]3(C)[C@@]2(C)CC1 [ALISOL A]	Not Active	–	–
C[C@H](C[C@H](O)[C@@H](O)C(C)(C)O)C1=C2C[C@@H]3OC(=O)C[C@@]4(C)[C@H](C(C)(C)C(=O)O)CC[C@@](C)([C@@H]34)[C@@]2(C)CC1	Not Active	4.68	–
CC1=CC(=O)C[C@@]2(C)[C@H]1CC[C@@]1(C)[C@H]2[C@@H](O)CC2=C([C@H](C)C[C@H](O)[C@@H](O)C(C)(C)O)CC[C@@]21C	Not Active	5.69	5.75
CCOC(C)(C)[C@H](O)[C@@H](O)C[C@@H](C)C1=C2C[C@H](O)[C@H]3[C@@]4(C)CCC(=O)C(C)(C)[C@@H]4CC[C@]3(C)[C@@]2(C)CC1	Not Active	5.33	–
C=C(C)[C@H](O)[C@@H]1C[C@@H](C)C2=C3C[C@H](O)[C@H]4[C@@]5(C)CCC(=O)C(C)(C)[C@@H]5CC[C@]4(C)[C@@]3(C)C[C@@H]2O1	Not Active	–	–
C[C@H](CC[C@H](O)C(C)(C)O)[C@H]1CC[C@@]2(C)C1=CC=C1[C@]2(C)CC[C@H]2C(C)(C)C(=O)CC[C@]12C	Not Active	5.34	–
CC(=O)O[C@H]1C[C@@H](C)C2=C3C[C@H](O)[C@H]4[C@@]5(C)CCC(=O)C(C)(C)[C@@H]5CC[C@]4(C)[C@@]3(C)C[C@@H]2O[C@@H]1C(C)(C)O	Not Active	–	–
C[C@H](C[C@H](O)[C@@H](O)C(C)(C)O)C1=C2C[C@H](O)[C@H]3[C@@]4(C)CCC(=O)C(C)(C)[C@@H]4CC[C@]3(C)[C@@]2(C)C=C1	Not Active	–	–

The remaining lines, values ahead:

inhibition (INH) [1]	pIC50 [2]	pKi [3]	SMILES
Not Active	5.06	–	C=C(C)[C@@H](O)[C@@H](O)C[C@@H](C)C1=C2C=C[C@H]3[C@@]4(C)CCC(=O)C(C)(C)[C@@H]4CC[C@]3(C)[C@@]2(C)CC1=O
Not Active	4.61	–	CC(=O)O[C@H]([C@@H]1C[C@@H](C)C2=C3C=C[C@H]4[C@@]5(C)CCC(=O)C(C)(C)[C@@H]5CC[C@]4(C)[C@@]3(C)C[C@@H]2O1)C(C)(C)O
Not Active	–	–	C[C@H](C[C@H](O)[C@H](O)C(C)(C)O)C1=C2C=C[C@H]3[C@@]4(C)CCC(=O)C(C)(C)[C@@H]4CC[C@]3(C)[C@@]2(C)CC1=O
Not Active	–	–	C[C@H](CC(=O)[C@H](O)C(C)(C)O)C1=C2C=C[C@H]3[C@@]4(C)CCC(=O)C(C)(C)[C@@H]4CC[C@]3(C)[C@@]2(C)CC1=O
Not Active	–	–	CC(=O)O[C@@H](C[C@@H](C)C1=C2C=C[C@H]3[C@@]4(C)CCC(=O)C(C)(C)[C@@H]4CC[C@]3(C)[C@@]2(C)CC1=O)[C@H](O)C(C)(C)O
Not Active	–	–	C[C@@H]1C[C@@H]([C@@H](O)C(C)(C)O)O[C@H]2C[C@@]3(C)C(=C12)C=C[C@H]1[C@@]2(C)CCC(=O)C(C)(C)[C@@H]2CC[C@@]13C
Not Active	–	–	C[C@@H]1CC(=O)[C@@H](C(C)(C)O)O[C@H]2C[C@@]3(C)C(=C12)C=C[C@H]1[C@@]2(C)CCC(=O)C(C)(C)[C@@H]2CC[C@@]13C
Not Active	–	–	CC(=O)C1=C2C=C[C@H]3[C@@]4(C)CCC(=O)C(C)(C)[C@@H]4CC[C@]3(C)[C@@]2(C)CC1=O
Not Active	–	–	C[C@H](C[C@H](O)[C@H](O)C(C)(C)O)C1=C2C=C[C@H]3[C@@]4(C)CCC(=O)C(C)(C)[C@@H]4CC(=O)[C@]3(C)[C@@]2(C)CC1=O
